Results published in PMC9482658, “Mechanistic understanding of human SLFN11” (Nature Communications, 2022).

T1: SLFN5 (Homo sapiens, UniProt Q08AF3)
T1 construct: recombinant
T1 sequence (Q08AF3 1-891): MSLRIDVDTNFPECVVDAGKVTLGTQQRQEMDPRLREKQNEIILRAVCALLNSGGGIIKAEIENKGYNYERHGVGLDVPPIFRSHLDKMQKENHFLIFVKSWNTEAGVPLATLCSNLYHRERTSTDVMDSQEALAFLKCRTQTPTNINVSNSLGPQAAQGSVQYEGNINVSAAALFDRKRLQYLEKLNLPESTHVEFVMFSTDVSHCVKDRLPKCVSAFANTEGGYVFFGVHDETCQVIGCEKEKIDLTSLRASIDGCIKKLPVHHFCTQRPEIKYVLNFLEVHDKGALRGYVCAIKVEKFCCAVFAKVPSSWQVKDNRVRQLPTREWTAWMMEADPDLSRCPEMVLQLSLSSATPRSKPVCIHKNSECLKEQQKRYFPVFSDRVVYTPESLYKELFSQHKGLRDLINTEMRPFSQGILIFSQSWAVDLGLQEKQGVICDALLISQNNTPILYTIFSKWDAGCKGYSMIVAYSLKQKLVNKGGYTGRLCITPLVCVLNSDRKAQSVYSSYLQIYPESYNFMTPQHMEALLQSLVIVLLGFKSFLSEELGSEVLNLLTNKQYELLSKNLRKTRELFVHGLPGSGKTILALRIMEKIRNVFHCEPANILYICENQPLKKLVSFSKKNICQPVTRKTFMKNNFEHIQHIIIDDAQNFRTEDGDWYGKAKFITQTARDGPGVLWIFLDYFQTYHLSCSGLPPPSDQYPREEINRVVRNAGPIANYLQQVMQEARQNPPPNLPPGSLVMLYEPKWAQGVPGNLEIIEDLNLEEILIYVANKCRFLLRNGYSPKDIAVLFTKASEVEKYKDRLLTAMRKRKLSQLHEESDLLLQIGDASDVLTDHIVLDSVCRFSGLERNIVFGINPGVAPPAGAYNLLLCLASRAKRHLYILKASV

B1: full-length human SLFN11 E209A (enzyme, UniProt Q7Z7L1 1-901, looked up)
chain: MEANQCPLVVEPSYPDLVINVGEVTLGEENRKKLQKIQRDQEKERVMRAACALLNSGGGVIRMAKKVEHPVEMGLDLEQSLRELIQSSDLQAFFETKQQGRCFYIFVKSWSSGPFPEDRSVKPRLCSLSSSLYRRSETSVRSMDSREAFCFLKTKRKPKILEEGPFHKIHKGVYQELPNSDPADPNSDPADLIFQKDYLEYGEILPFPASQLVEFKQFSTKHFQEYVKRTIPEYVPAFANTGGGYLFIGVDDKSREVLGCAKENVDPDSLRRKIEQAIYKLPCVHFCQPQRPITFTLKIVNVLKRGELYGYACMIRVNPFCCAVFSEAPNSWIVEDKYVCSLTTEKWVGMMTDTDPDLLQLSEDFECQLSLSSGPPLSRPVYSKKGLEHKKELQQLLFSVPPGYLRYTPESLWRDLISEHRGLEELINKQMQPFFRGILIFSRSWAVDLNLQEKPGVICDALLIAQNSTPILYTILREQDAEGQDYCTRTAFTLKQKLVNMGGYTGKVCVRAKVLCLSPESSAEALEAAVSPMDYPASYSLAGTQHMEALLQSLVIVLLGFRSLLSDQLGCEVLNLLTAQQYEIFSRSLRKNRELFVHGLPGSGKTIMAMKIMEKIRNVFHCEAHRILYVCENQPLRNFISDRNICRAETRKTFLRENFEHIQHIVIDEAQNFRTEDGDWYGKAKSITRRAKGGPGILWIFLDYFQTSHLDCSGLPPLSDQYPREELTRIVRNADPIAKYLQKEMQVIRSNPSFNIPTGCLEVFPEAEWSQGVQGTLRIKKYLTVEQIMTCVADTCRRFFDRGYSPKDVAVLVSTAKEVEHYKYELLKAMRKKRVVQLSDACDMLGDHIVLDSVRRFSGLERSIVFGIHPRTADPAILPNVLICLASRAKQHLYIFPWGGH
notes: Schlafen 11 (SLFN11), human, full length, nuclease active site mutant E209A; Made by site-directed mutagenesis of the wild-type construct; source: Trichoplusia ni High Five insect cells, expressed and purified as the wild-type protein
B2: full-length human SLFN11 (Schlafen 11), wild type (enzyme, UniProt Q7Z7L1 1-901, looked up)
chain: MEANQCPLVVEPSYPDLVINVGEVTLGEENRKKLQKIQRDQEKERVMRAACALLNSGGGVIRMAKKVEHPVEMGLDLEQSLRELIQSSDLQAFFETKQQGRCFYIFVKSWSSGPFPEDRSVKPRLCSLSSSLYRRSETSVRSMDSREAFCFLKTKRKPKILEEGPFHKIHKGVYQELPNSDPADPNSDPADLIFQKDYLEYGEILPFPESQLVEFKQFSTKHFQEYVKRTIPEYVPAFANTGGGYLFIGVDDKSREVLGCAKENVDPDSLRRKIEQAIYKLPCVHFCQPQRPITFTLKIVNVLKRGELYGYACMIRVNPFCCAVFSEAPNSWIVEDKYVCSLTTEKWVGMMTDTDPDLLQLSEDFECQLSLSSGPPLSRPVYSKKGLEHKKELQQLLFSVPPGYLRYTPESLWRDLISEHRGLEELINKQMQPFFRGILIFSRSWAVDLNLQEKPGVICDALLIAQNSTPILYTILREQDAEGQDYCTRTAFTLKQKLVNMGGYTGKVCVRAKVLCLSPESSAEALEAAVSPMDYPASYSLAGTQHMEALLQSLVIVLLGFRSLLSDQLGCEVLNLLTAQQYEIFSRSLRKNRELFVHGLPGSGKTIMAMKIMEKIRNVFHCEAHRILYVCENQPLRNFISDRNICRAETRKTFLRENFEHIQHIVIDEAQNFRTEDGDWYGKAKSITRRAKGGPGILWIFLDYFQTSHLDCSGLPPLSDQYPREELTRIVRNADPIAKYLQKEMQVIRSNPSFNIPTGCLEVFPEAEWSQGVQGTLRIKKYLTVEQIMTCVADTCRRFFDRGYSPKDVAVLVSTAKEVEHYKYELLKAMRKKRVVQLSDACDMLGDHIVLDSVRRFSGLERSIVFGIHPRTADPAILPNVLICLASRAKQHLYIFPWGGH
notes: Schlafen 11 (SLFN11), human, full length; domains: Slfn core 1-353, linker 354-576, helicase 577-901; residues 7-899 built in the model; The construct has an HRV 3C cleavage site after the N-terminal double FLAG tag; The protein was eluted with Flag peptide and no cleavage is described; It is in a monomer-dimer equilibrium in solution; also called SLFN11^wt; source: SEC for cryo-EM samples

Assays:
SLFN5 = target: T1, SLFN5; test: nanoDSF thermal unfolding (Tycho NT.[…]); format: binding; conditions: 1 mM nucleotide, 300 nM protein; 25 mM Tris pH 7.5, 60 mM NaCl, 2 mM MgCl2, 1 mM DTT
[1] = target: the molecule itself; test: cryo-EM structure; SLFN11^E209A at 5 uM; 50 mM glycine pH 9, 200 mM NaCl, 2 mM MgCl2, 1 mM DTT; dimer reconstructed in C2 symmetry; monomer reconstructed from another dataset
[2] = target: the molecule itself; test: mass photometry; 50 nM SLFN11 in 25 mM Tris pH 7.5, 2 mM MgCl2, 1 mM DTT with variable concentrations of NaCl; 100 or 300 nM 60 nt ssDNA added in the stabilisation experiment; monomer-dimer equilibrium

Row | Molecule | unfolding temperature increase (SLFN5) | other results
1 | Nc1ncnc2c1ncn2[C@@H]1O[C@H](COP(=O)(O)OP(=O)(O)OP(=O)(O)O)[C@@H](O)[C@H]1O [ATP] | SLFN5 shows a significant increase in unfolding temperature in presence of ATP and ATPγS | 
2 | Nc1ncnc2c1ncn2[C@@H]1O[C@H](COP(=O)(O)OP(=O)(O)OP(O)(O)=S)[C@@H](O)[C@H]1O [ATPγS] | SLFN5 shows a significant increase in unfolding temperature in presence of ATP and ATPγS | 
3 | B1 |  | binding result [1]: binds
4 | B2 |  | stoichiometry N [2]: 2
